The numbers were not newly measured in patent US6455580B1, “Method and composition for antiviral therapy” (F&S Group, Inc., priority 1994, dated 2002), which cites them from elsewhere.

Assay in data set [1]: not given
This is another data set of the same source.

For data set [2] the following is noted: animal studies; oleuropein itself or as component of plant tissue extracts.

In the case of `COC(=O)C1=CO[C@@H](C)[C@@H](C=O)C1CC(=O)O` (single isomer, unassigned; (-)) [(−)-elenolic acid], the “antiviral properties in vitro” value is reported as “antiviral properties in vitro”. The “antiviral activity in vivo” value in data set [1] is “little, if any, activity in vivo”.
For the molecule `C/C=C1/[C@H](O[C@@H]2O[C@H](CO)[C@@H](O)[C@H](O)[C@H]2O)OC=C(C(=O)OC)[C@H]1CC(=O)OCCc1ccc(O)c(O)c1` [oleuropein], the “hypoglycemic and cardiovascular effects” value in data set [2] is “exhibit both hypoglycemic and cardiovascular effects”.
